According to patent US7655670B2 (Janssen Pharmaceutica N.V., priority 2005, dated 2010):
Where two headings read alike, the source gives them in different places.

Tests used:
ORL-1 receptor = molecular target: T1, ORL-1 receptor (Homo sapiens, UniProt P41146); test: ORL-1 functional assay (calcium flux, FLIPR); type: cell-based; set-up: key to Inhibitor: a notation of “no” indicates that the compound did not act as an inhibitor; a notation of “yes” indicates that the compound acted as an inhibitor; a notation of “undetermined” indicates that the data did not clearly show whether or not the compound acted as an antagonist; conditions: for Inhibitor: HEK-293 cells over-expressing ORL-1 receptor and Gqi5 G protein, calcium flux; for % Inhibition (100 nM Nociceptin): inhibition of calcium signal from 100 nM nociceptin, HEK-293 cells with ORL-1 and Gqi5
T1 construct: expressed in transfected cells; host or cells: HEK-293 over-expressing ORL-1 and Gqi5
T1 sequence (P41146 whole entry): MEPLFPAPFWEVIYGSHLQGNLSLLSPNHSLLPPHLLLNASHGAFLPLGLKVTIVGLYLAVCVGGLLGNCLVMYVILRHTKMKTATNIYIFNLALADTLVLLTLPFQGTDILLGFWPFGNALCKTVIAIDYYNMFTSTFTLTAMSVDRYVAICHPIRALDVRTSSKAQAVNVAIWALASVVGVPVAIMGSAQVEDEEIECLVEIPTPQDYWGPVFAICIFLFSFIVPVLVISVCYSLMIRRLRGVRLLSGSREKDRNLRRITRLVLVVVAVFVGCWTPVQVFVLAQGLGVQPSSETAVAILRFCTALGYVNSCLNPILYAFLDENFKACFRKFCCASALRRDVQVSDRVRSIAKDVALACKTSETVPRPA
Experimental: To assay the function of a test compound, a HEK-293 cell line that over-expresses the ORL-1 receptor and the Gqi5 G protein (Molecular Devices) were employed. By using a calcium flux assay, agonism and antagonism through the ORL-1 receptor were detectable.
The HEK-293 cells were plated two days prior to assay. For assay, cells in 50 μl of medium were incubated with 50 μl of dye (Molecular Devices) for 1 hour at 37° C. 100 μl of test compound diluted in Hank's Buffered Salt Solution (HBSS) at 2-fold the indicated final concentration was added and time points taken every 1 second for 1 minute and every 3 seconds for an additional 1 minute using FLIPR384 (Molecular Devices). 50 μl of nociceptin (Neosystems, SA) at 5-fold the indicated final concentration was then added and additional time points were recorded every 1 second for 1 minute and every 3 seconds for an additional 1 minute.
The resulting data were processed using Microsoft Excel 6.0 and EC50 values were determined using GraphPad Prism 3.0. For agonists, the EC50 was determined from the initial calcium signal obtained after addition of the test compound. For compounds that behaved as antagonists, the percent inhibition or IC50 of the signal resulting from the subsequent addition of the nociceptin peptide was calculated.

[1] = molecular target: human nociceptin receptor (ORL-1) (Homo sapiens, UniProt P41146); test: nociceptin receptor (ORL-1) binding assay, 125I-Tyr14-nociceptin displacement
Chain of human nociceptin receptor (ORL-1) (P41146 whole entry): as above

[2] = molecular target: Delta (δ) opioid receptor (Homo sapiens, UniProt P41143); test: Filtration binding assay, delta opioid receptor (DPDPE-H3 ligand)
Chain of Delta (δ) opioid receptor (P41143 whole entry): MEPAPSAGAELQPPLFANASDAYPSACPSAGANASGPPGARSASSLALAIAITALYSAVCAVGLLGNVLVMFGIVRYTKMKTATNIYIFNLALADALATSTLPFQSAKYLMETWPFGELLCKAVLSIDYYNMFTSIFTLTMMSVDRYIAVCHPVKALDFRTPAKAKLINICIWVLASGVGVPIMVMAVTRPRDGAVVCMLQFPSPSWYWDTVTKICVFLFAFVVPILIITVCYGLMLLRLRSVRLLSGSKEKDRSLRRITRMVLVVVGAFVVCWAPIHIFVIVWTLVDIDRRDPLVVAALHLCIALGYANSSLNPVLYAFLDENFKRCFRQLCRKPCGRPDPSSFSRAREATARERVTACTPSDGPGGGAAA

Mu (μ) opioid receptor = Mu (μ) opioid receptor (Homo sapiens, UniProt P35372); test: Filtration binding assay, mu opioid receptor (Damgo-H3 ligand)
Chain of Mu (μ) opioid receptor (P35372 whole entry): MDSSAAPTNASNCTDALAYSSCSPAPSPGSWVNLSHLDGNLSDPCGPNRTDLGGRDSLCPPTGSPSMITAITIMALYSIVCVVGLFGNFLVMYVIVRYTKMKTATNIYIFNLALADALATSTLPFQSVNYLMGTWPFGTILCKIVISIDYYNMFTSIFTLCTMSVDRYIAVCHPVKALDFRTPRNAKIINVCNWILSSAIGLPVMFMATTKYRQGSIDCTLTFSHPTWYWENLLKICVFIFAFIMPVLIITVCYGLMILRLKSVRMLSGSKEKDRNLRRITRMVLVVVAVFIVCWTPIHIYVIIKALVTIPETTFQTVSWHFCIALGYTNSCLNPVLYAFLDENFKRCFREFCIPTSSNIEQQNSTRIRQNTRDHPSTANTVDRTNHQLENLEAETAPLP

[3] = molecular target: Kappa (κ) opioid receptor (Homo sapiens, UniProt P41145); test: Filtration binding assay, kappa opioid receptor (U69593-H3 ligand)
Chain of Kappa (κ) opioid receptor (P41145 whole entry): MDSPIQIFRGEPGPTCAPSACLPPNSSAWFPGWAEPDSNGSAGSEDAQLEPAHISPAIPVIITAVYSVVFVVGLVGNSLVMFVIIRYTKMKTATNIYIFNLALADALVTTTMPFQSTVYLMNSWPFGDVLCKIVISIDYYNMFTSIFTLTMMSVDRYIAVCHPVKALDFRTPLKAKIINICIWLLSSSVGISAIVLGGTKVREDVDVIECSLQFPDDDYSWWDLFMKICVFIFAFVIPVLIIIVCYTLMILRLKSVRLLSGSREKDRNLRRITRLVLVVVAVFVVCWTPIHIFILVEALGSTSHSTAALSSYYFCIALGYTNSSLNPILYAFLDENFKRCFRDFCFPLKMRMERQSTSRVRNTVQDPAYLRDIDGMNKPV

[4] = 2D4 cell line membrane, DPDPE-H3 ligand, calculated mean where tested more than once, read-out: Delta (δ) IC50
[5] = 1 D4 cell line membrane, Damgo-H3 ligand, calculated mean where tested more than once, read-out: Mu (μ) IC50
[6] = 2C2 cell line membrane, U69593-H3 ligand, calculated mean where tested more than once, read-out: Kappa (κ) IC50

SMILES: COC(=O)CN1C(=O)C2(CCN(CC3CCCCCC3)CC2)c2ccccc21 [Compound 1]
- Inhibitor (ORL-1 receptor): no
- IC50 [1]: 510 nM

SMILES: O=C1N(CC2CCCCC2)c2ccccc2C12CCN(C1Cc3cccc4cccc1c34)CC2 (stereo not shown) [Compound 4]
- IC50 [2, 4]: > 10000 nM
- IC50 (Mu (μ) opioid receptor; [5]): > 10000 nM

SMILES: COc1ccc2c(c1)N(CC1CC1)C(=O)C21CCN(CC2CCCCCCC2)CC1 [Compound 5, 1-(cyclopropyl-methyl)-5-(cyclooctyl-methyl)-10-methoxy-spiro[indoline-3,4′-piperidin]-2-one]
- IC50 (Mu (μ) opioid receptor): > 10000 nM

SMILES: CC(C)c1ccc2c(c1)C1(CCN(CC3CCCCCCC3)CC1)C(=O)N2C [Compound 7, 1-methyl-5-(cyclooctyl-methyl)-9-isopropyl-spiro[indoline-3,4′-piperidin]-2-one]
- IC50 (Mu (μ) opioid receptor; read-out: Mu (μ) IC50): 980 nM
- IC50 ([3]; read-out: Kappa (κ) IC50): 97 nM
- IC50 [1]: 7400 nM

SMILES: CN1C(=O)C2(CCN(CC3CCCCCCC3)CC2)c2cc(C(F)(F)F)ccc21 [Compound 8, 1-methyl-5-(cyclooctyl-methyl)-9-trifluoromethyl-spiro[indoline-3,4′-piperidin]-2-one]
- IC50 [2]: > 10000 nM
- IC50 (Mu (μ) opioid receptor; [5]): 5310 nM
- IC50 [1]: 600 nM

SMILES: CN1C(=O)C2(CCN(CC3CCCCCCC3)CC2)c2cc(F)ccc21 [Compound 9, 1-methyl-5-(cyclooctyl-methyl)-9-fluoro-spiro[indoline-3,4′-piperidin]-2-one]
- IC50 [2]: > 10000 nM
- IC50 (Mu (μ) opioid receptor; [5]): 1010 nM
- IC50 [3, 6]: 250 nM
- Inhibitor (ORL-1 receptor): undetermined
- % Inhibition (100 nM Nociceptin) (ORL-1 receptor): 41 ± 26%
- IC50 [1]: 23 nM

SMILES: COC(=O)CN1C(=O)C2(CCN(Cc3ccc(C(F)(F)F)cc3)CC2)c2ccccc21 [Compound 11]
- IC50 [1]: 880 nM

SMILES: COC(=O)CN1C(=O)C2(CCN(Cc3cccc(C(F)(F)F)c3)CC2)c2ccccc21 [Compound 12]
- IC50 [1]: 140 nM

SMILES: CN1C(=O)C2(CCN(C(=O)OC(C)(C)C)CC2)c2cc(C(F)(F)F)ccc21 [Compound 14, 1-methyl-5-tert-butoxycarbonyl-9-trifluoromethyl-spiro[indoline-3,4′-piperidin]-2-one]
- IC50 [1]: > 10000 nM

SMILES: COC(=O)CN1C(=O)C2(CCN(C3CCC4CCCCC4C3)CC2)c2ccccc21 (stereo not shown) [Compound 15]
- IC50 [1]: 900 nM

SMILES: CC(=O)N[C@@H](CSCC(O)CN1C(=O)C2(CCN(CC3CCCCCCC3)CC2)c2ccccc21)C(=O)O (stereo partly shown) [Compound 16]
- IC50 [2, 4]: > 10000 nM
- IC50 (Mu (μ) opioid receptor; [5]): 360 nM
- IC50 [3, 6]: 360 nM

SMILES: CCCN1C(=O)C2(CCN(CC3CCCCCCC3)CC2)c2cc(C(C)C)ccc21 [Compound 17]
- IC50 [2, 4]: 5700 nM
- IC50 (Mu (μ) opioid receptor; [5]): > 10000 nM
- IC50 [3, 6]: 4000 nM

SMILES: O=C1Nc2ccccc2C12CCN(CC1CCCCCCC1)CC2 [Compound 18]
- IC50 (Mu (μ) opioid receptor; [5]): 1110 nM
- IC50 [3, 6]: 430 nM
- Inhibitor (ORL-1 receptor): yes
- % Inhibition (100 nM Nociceptin) (ORL-1 receptor): 45 ± 9%
- IC50 [1]: 380 nM

SMILES: CN1C(=O)C2(CCN(CC3CCCCCCC3)CC2)c2ccc(O)cc21 [Compound 19]
- IC50 [2, 4]: 300 nM
- IC50 (Mu (μ) opioid receptor; [5]): > 10000 nM
- IC50 [3, 6]: 120 nM
- IC50 [1]: 2680 nM

SMILES: O=C1N(CCO)c2ccccc2C12CCN(CC1CCCCCCC1)CC2 [Compound 20]
- IC50 (Mu (μ) opioid receptor; [5]): 1690 nM
- IC50 [1]: 290 nM

SMILES: COC(=O)CN1C(=O)C2(CCN(CC3CC3)CC2)c2ccccc21 [Compound 23]
- IC50 [1]: 3600 nM

SMILES: COC(=O)CN1C(=O)C2(CCN(CC3CCCCC3)CC2)c2ccccc21 [Compound 24]
- Inhibitor (ORL-1 receptor): yes
- % Inhibition (100 nM Nociceptin) (ORL-1 receptor): 32 ± 2%
- IC50 [1]: 800 nM

SMILES: CCCCCCN1CCC2(CC1)C(=O)N(CC(=O)OC)c1ccccc12 [Compound 26]
- IC50 [1]: 820 nM

SMILES: COC(=O)CN1C(=O)C2(CCN(CC3CCCCCCCCCCC3)CC2)c2ccccc21 [Compound 27]
- IC50 [1]: 1120 nM

SMILES: COC(=O)CN1C(=O)C2(CCN(CC3CCC(C(C)(C)C)CC3)CC2)c2ccccc21 (stereo not shown) [Compound 29]
- IC50 [1]: 100 nM

SMILES: COC(=O)CN1C(=O)C2(CCN(C3Cc4cccc5cccc3c45)CC2)c2ccccc21 (stereo not shown) [Compound 30]
- IC50 [2, 4]: > 10000 nM
- IC50 (Mu (μ) opioid receptor; [5]): > 10000 nM
- IC50 [3, 6]: 4410 nM

SMILES: COC(=O)CN1C(=O)C2(CCN(Cc3ccc4ccccc4c3)CC2)c2ccccc21 [Compound 32]
- IC50 [1]: 250 nM

SMILES: COc1ccc2c(c1)N(C)C(=O)C21CCN(CC2CCCCCCC2)CC1 [Compound 35, 1-methyl-5-(cyclooctyl-methyl)-10-methoxy-spiro[indoline-3,4′-piperidin]-2-one]
- IC50 (Mu (μ) opioid receptor; [5]): 1610 nM
- IC50 [3, 6]: 1220 nM
- IC50 [1]: 2400 nM

SMILES: COC(=O)CN1C(=O)C2(CCN(Cc3ccc(Cl)cc3)CC2)c2ccccc21 [Compound 39]
- IC50 [1]: 710 nM

SMILES: O=C(O)CN1C(=O)C2(CCN(CC3CCCCCCC3)CC2)c2ccccc21 [Compound 41]
- IC50 [2]: > 10000 nM
- IC50 (Mu (μ) opioid receptor): > 10000 nM
- IC50 [3]: > 10000 nM

SMILES: COC(=O)CN1C(=O)C2(CCN(CC3CCCCCCC3)CC2)c2ccccc21 [Compound 42]
- IC50 (Mu (μ) opioid receptor; [5]): 3550 nM
- IC50 [3, 6]: 640 nM
- IC50 [1]: 100 nM

SMILES: COC(=O)CN1C(=O)C2(CCN(Cc3cccc4ccccc34)CC2)c2ccccc21 [Compound 43]
- IC50 [1]: 470 nM

SMILES: O=C1N(Cc2ccccc2)c2ccccc2C12CCN(CC1CCCCCCC1)CC2 [Compound 44]
- IC50 (Mu (μ) opioid receptor; [5]): 960 nM
- IC50 [3, 6]: 1100 nM
- IC50 [1]: 120 nM

SMILES: CN1C(=O)C2(CCN(CC3CCCCCCC3)CC2)c2ccccc21 [Compound 45]
- IC50 (Mu (μ) opioid receptor; [5]): 1300 nM
- IC50 [3, 6]: 930 nM
- Inhibitor (ORL-1 receptor): no
- IC50 [1]: 32 nM

SMILES: CC(=O)OCCN1C(=O)C2(CCN(CC3CCCCCCC3)CC2)c2ccccc21 [Compound 46]
- IC50 (Mu (μ) opioid receptor; [5]): 1410 nM
- IC50 [3, 6]: 2640 nM
- Inhibitor (ORL-1 receptor): no
- IC50 [1]: 180 nM

SMILES: CCN1C(=O)C2(CCN(CC3CCCCCCC3)CC2)c2ccc(OC)cc21 [Compound 55, 1-ethyl-5-(cyclooctyl-methyl)-10-methoxy-spiro[indoline-3,4′-piperidin]-2-one]
- IC50 (Mu (μ) opioid receptor; [5]): 1460 nM
- IC50 [1]: 2750 nM

SMILES: Cc1ccc2c(c1)C1(CCN(CC3CCCCCCC3)CC1)C(=O)N2C [Compound 57, 1-methyl-5-(cyclooctyl-methyl)-9-methyl-spiro[indoline-3,4′-piperidin]-2-one]
- IC50 [2, 4]: > 10000 nM
- IC50 (Mu (μ) opioid receptor; [5]): 4280 nM
- IC50 [3, 6]: 540 nM
- Inhibitor (ORL-1 receptor): no
- IC50 [1]: 450 nM

SMILES: Cc1ccc2c(c1)N(C)C(=O)C21CCN(CC2CCCCCCC2)CC1 [Compound 58, 1-methyl-5-(cyclooctyl-methyl)-10-methyl-spiro[indoline-3,4′-piperidin]-2-one]
- IC50 [2, 4]: 8800 nM
- IC50 (Mu (μ) opioid receptor; [5]): 6470 nM
- IC50 [3, 6]: 2380 nM
- Inhibitor (ORL-1 receptor): undetermined
- % Inhibition (100 nM Nociceptin) (ORL-1 receptor): 48 ± 26%
- IC50 [1]: 150 nM

SMILES: Cc1cccc2c1C1(CCN(CC3CCCCCCC3)CC1)C(=O)N2C [Compound 59, 1-methyl-5-(cyclooctyl-methyl)-8-methyl-spiro[indoline-3,4′-piperidin]-2-one]
- IC50 (Mu (μ) opioid receptor; [5]): 480 nM
- IC50 [3, 6]: 560 nM
- Inhibitor (ORL-1 receptor): yes
- % Inhibition (100 nM Nociceptin) (ORL-1 receptor): 81 ± 6%
- IC50 [1]: 37 nM

SMILES: O=C1N(CC2CO2)c2ccccc2C12CCN(CC1CCCCCCC1)CC2 (stereo not shown) [Compound 60]
- IC50 (Mu (μ) opioid receptor; [5]): 840 nM
- IC50 [3, 6]: 480 nM
- Inhibitor (ORL-1 receptor): no
- % Inhibition (100 nM Nociceptin) (ORL-1 receptor): 17 ± 3%
- IC50 [1]: 83 nM

SMILES: O=C1N(CC(O)CNCCN2CCOCC2)c2ccccc2C12CCN(CC1CCCCCCC1)CC2 (stereo not shown) [Compound 61]
- IC50 (Mu (μ) opioid receptor; read-out: Mu (μ) IC50): 500 nM
- IC50 ([3]; read-out: Kappa (κ) IC50): 100 nM
- IC50 [1]: 120 nM

SMILES: CCN(Cc1ccc(C)cc1)CC(O)CN1C(=O)C2(CCN(CC3CCCCCCC3)CC2)c2ccccc21 (stereo not shown) [Compound 62]
- IC50 (Mu (μ) opioid receptor; [5]): 620 nM
- IC50 [3, 6]: 220 nM
- IC50 [1]: 320 nM

SMILES: CCN1CC2(CCN(CC3CCCCCCC3)CC2)c2ccc(OC)cc21 [Compound 63]
- IC50 [2, 4]: > 10000 nM
- IC50 (Mu (μ) opioid receptor; [5]): > 10000 nM
- IC50 [3, 6]: > 10000 nM
